According to US20200054608A1, “ALPHA ADRENERGIC AGONISTS FOR THE TREATMENT OF TISSUE TRAUMA” (Allergan, Inc., priority 2013, published 2020):

Legend:
SKH1 hairless mice [1] = assay: UVB-induced sunburn model: erythema on back skin measured with a chromameter; type: in vivo
Description: (§1) A xenon arc lamp (Newport Corp, USA) was used as a source of UVB. SKH1 hairless mice, lying on their stomachs with their left sides covered, were exposed to 120 mJ/cm2 UVB radiation. Regions of back skin were treated topically with oxymetazoline hydrochloride 0.5% gel at 20 min, 4 hr or 8 hr post-UVB. An additional group had the vehicle applied topically at 20 min post UVB exposure. Erythema on the exposed and unexposed back was measured using a chromameter (Konica Minolta) at 2 and 4 hr post-UVB exposure. Skin samples were collected 48 hr following UVB exposure and examined histologically to assess the extent of injury.

SKH1 hairless mice [2] = assay: UVB-induced sunburn model: histological examination of skin samples 48 hr following UVB exposure; type: in vivo; details: for outcome of healing (overall healing, histology) / mice with overall epidermal healing fair to good: 48 hr; for outcome of healing (overall healing, histology): hydrochloride; for mice with overall epidermal healing fair to good: vehicle 0%
Description: as §1

oxymetazoline hydrochloride
inhibition of erythema (SKH1 hairless mice [1]; 0.5% topical gel applied 20 minutes following 120 mJ/cm2 UVB, 2 hr timepoint, p<0.001): almost completely inhibited the erythema | inhibition of erythema (SKH1 hairless mice [1]; 0.5% topical gel applied 20 minutes following UVB, 4 hr post-UVB exposure): no inhibition of the erythema | epidermal separation (SKH1 hairless mice [2]; 0.5% topical applied 20 minutes post UVB, 48 hours, n=6): reduced the occurrence and/or severity of epidermal separation | outcome of healing (overall healing, histology) (SKH1 hairless mice [2]; 0.5% topical applied 20 minutes post UVB, vs vehicle controls): potentially improved the outcome | outcome of healing (overall healing, histology) (SKH1 hairless mice [2]; 0.5% topical applied 20 minutes post UVB, vs vehicle controls, listed as oxymetazoline): slightly improved the outcome of healing | epidermal separation (SKH1 hairless mice [2]; 0.5% topical applied 4 hours post UVB, 48 hours, n=6): reduced the occurrence and/or severity of epidermal separation | outcome of healing (overall healing, histology) (SKH1 hairless mice [2]; 0.5% topical applied 4 hours post UVB, vs concurrent and historical vehicle controls): more positive outcome | outcome of healing (overall healing, histology) (SKH1 hairless mice [2]; 0.5% topical applied 4 hours post UVB, vs concurrent and historical vehicle controls, listed as oxymetazoline): improved the outcome of healing | adaptive response in histological sections (epidermal proliferation, adaptive hyperplasia) (SKH1 hairless mice [2]; 0.5% topical applied 8 hours following injury, skin collected at 48 hours, vs vehicle-treated): greater degree of a positive adaptive response | epidermal hyperplasia (adaptive healing response) (SKH1 hairless mice [2]; 0.5% topical applied 8 hours following the injury, 48 hours, n=6): resulted in more individuals who had progressed to advanced healing | epidermal separation (SKH1 hairless mice [2]; 0.5% topical applied 8 hours post UVB, 48 hours, n=6): reduced the occurrence and/or severity of epidermal separation | outcome of healing (overall healing, histology) (SKH1 hairless mice [2]; 0.5% topical applied 8 hours post UVB, vs concurrent and historical vehicle controls): more positive outcome | outcome of healing (overall healing, histology) (SKH1 hairless mice [2]; 0.5% topical applied 8 hours post UVB, vs concurrent and historical vehicle controls, listed as oxymetazoline): improved the outcome of healing | mice with overall epidermal healing fair to good (SKH1 hairless mice [2]; 0.5% topical applied at 20 minutes post UVB, n=6): 33% | mice with overall epidermal healing fair to good (SKH1 hairless mice [2]; 0.5% topical applied at 4 hours post UVB, n=6): 50% | mice with overall epidermal healing fair to good (SKH1 hairless mice [2]; 0.5% topical applied at 8 hours post UVB, n=6): 67%
